Source: patent US20100069382A1, “Agent for prophylaxis or treatment of alcohol dependence or drug dependence” (priority 2006, published 2010)
Where two headings read alike, the source gives them in different places.

Experiments:
msP rats [1] = experiment: Yohimbine-induced reinstatement of alcohol-seeking behavior in msP rats; format: in vivo, rat
From the text: Male genetically selected alcohol-preferring rats known as msP rats were used in this study (Addiction Biol. 11, 339-355, 2006). […] After acquisition of a stable baseline of 10% ethanol self-administration, rats were subjected to 30-min extinction sessions for 15 consecutive days. Extinction sessions were identical to 10% ethanol self-administration sessions, however alcohol was no longer available. Beginning on extinction day 10, rats were divided into three groups with similar baseline levels of responding for 10% ethanol. For six consecutive days, 1 hour before the self-administration session and 8 hours later, each group of rats were orally given vehicle, 0.3 mg/kg of Compound A or 1.0 mg/kg of Compound A. After the extinction sessions, rats were given yohimbine (1,25 mg/kg, i.p.) 35 min before the test sessions. The 30-min reinstatement test was conducted under extinction condition.
Yohimbine was used as stressor for this study, because yohimbine is known to produce stress and anxiety-like states in both humans and non-humans (Bremner et al, 1996; Charney et al 1983; Holmberg et al 1963).

Wistar rats = experiment: Effect on alcohol withdrawal symptoms in Wistar rats; format: in vivo, rat
Protocol: Male Wistar rats were used in this study. According to the protocol shown in FIG. 1, rats were orally given 12-15 g/kg/body weight of ethanol in 24 hours on day 1 to day 2 and 9-10 g/kg/body weight of ethanol in 12 hours on day 3 to day 5. Compound A was administered p.o. at doses of 0.3 and 1 mg/kg/body weight twice after 2 and 7 hours of last ethanol administration. Four types of alcohol withdrawal symptoms such as vocalization, ventromedial limb retraction, tail rigidity, tail tremors were observed and scored with following 3 rating scales: mild=0, moderate=1, severe=2.

msP rats [2] = experiment: Study on dependence elicitation (conditioned place preference) in msP rats; format: in vivo, rat
Protocol: A two-compartment box divided by guillotine door was used. […] For the following 6 days, the rats were treated on alternate days with three Compound A-pairing administrations (0.3 and 1.0 mg/kg/body weight, p.o.) and three vehicle-pairing administrations immediately before being placed, for 1 hour, into the assigned chamber with guillotine door close for drug-compartment discrimination (conditioning). The day after the last conditioning session, the rats were placed, for 15 min, in the box with door open. The time spent in the drug paired compartment was measured.

msP rats [3] = experiment: Effect on alcohol intake in msP rats; format: in vivo, rat
Protocol: Male genetically selected alcohol-preferring rats known as Marchigian Sardinian alcohol-preferring (msP) rats were used in this study (Addiction Biol. 11, 339-355, 2006). […] Compound A at doses of 0.3 and 1 mg/kg/body weight was orally administered twice for 9 days at 1 hour before and 8 hours after onset of dark period.

[4] = Economidou et al., Peptides 27, 3299-3306, 2006, cited from earlier work
[5] = existing medicines, known profile, cited from earlier work
[6] = 0.3 and 1 mg/kg/body weight p.o. twice, 2 and 7 hours after last ethanol, observed 8 to 24 hours after last ethanol administration, FIG. 2

Question: Which results are given for `CNC(=O)Cn1c(=O)n(C2CCN([C@@H]3Cc4cccc5cccc3c45)CC2)c2ccccc21` [Compound A, (R)-2-{3-[1-(acenaphthen-1-yl)piperidin-4-yl]-2,3-dihydro-2-oxo-benzimidazol-1-yl}-N-methylacetamide]?
Answer: yohimbine stress-induced reinstatement of alcohol-seeking behavior (msP rats [1]; 1 mg/kg orally twice daily for six days, yohimbine 1,25 mg/kg i.p., FIG. 6): significantly attenuated; Suppressive effect on stress-induced reinstatement (msP rats [1]; Table 1 summary, Compound A): yes; score of tail rigidity (alcohol withdrawal symptom) (Wistar rats; [6]): significantly and dose-dependently decreased; score of tail tremors (alcohol withdrawal symptom) (Wistar rats; [6]): significantly and dose-dependently decreased; score of ventromedial limb retraction (alcohol withdrawal symptom) (Wistar rats; [6]): significantly and dose-dependently decreased; Ameliorative effect on alcohol withdrawal symptoms (Wistar rats; Table 1 summary, Compound A): yes; place preference (time spent in drug paired compartment) (msP rats [2]; 0.3 and 1.0 mg/kg/body weight p.o., three pairings, FIG. 8): induced place preference at neither 0.3 nor 1 mg/kg/body weight; Presence/absence of dependence (msP rats [2]; Table 1 summary, Compound A): absent; dependence elicitation by the compound itself (msP rats [2]; conclusion from conditioned place preference at 0.3 and 1 mg/kg/body weight): does not elicit dependence; ethanol consumption (msP rats [3]; 0.3 and 1 mg/kg/body weight orally twice daily for 9 days, free choice water / 10% ethanol, FIG. 4): significantly and dose-dependently decreased; Suppressive effect on excessive alcohol intake (msP rats [3]; Table 1 summary, Compound A): yes; duration of significant decrease of ethanol consumption after withdrawal of Compound A (msP rats [3]; after 9 days of oral dosing at 0.3 and 1 mg/kg/body weight, FIG. 4): 9 days

Question: With `O=C1NCN(c2ccccc2)C12CCN([C@@H]1CC[C@H]3CCCc4cccc1c43)CC2` [Ro64-6198] as the molecule, how does the alcohol drinking [4] read?
Answer: Its alcohol drinking is “failed to decrease alcohol drinking”.

Question: What about the “alcohol drinking at high dose” value ([4]; high dose) of the same molecule?
Answer: The value was “increase”.

Question: For `CC(=O)NCCCS(=O)(=O)O` [Acamprosate], which “Ameliorative effect on alcohol withdrawal symptoms” value (“Ameliorative effect” for short) [5] is on record?
Answer: The value was “none”.

Question: And the Presence/absence of dependence [5]?
Answer: The Presence/absence of dependence was “absent”.

Question: And the “Suppressive effect on excessive alcohol intake” value [5]?
Answer: The value was “yes”.

Question: What about the “Suppressive effect on stress-induced reinstatement” value [5] of the same molecule?
Answer: Its value is “none”.

Question: What about the “Ameliorative effect” value ([5]; listed as acamprosate) of the same molecule?
Answer: Its value is “ineffective”.

Question: What about the “Suppressive effect on excessive alcohol intake” value ([5]; listed as acamprosate) of the same molecule?
Answer: Its value is “effective”.

Question: What about the “Suppressive effect on stress-induced reinstatement” value ([5]; listed as acamprosate) of the same molecule?
Answer: Its value is “ineffective”.

Question: What does the source list for `Clc1cccc(Cl)c1N=C1NCCN1` [Clonidine]?
Answer: Ameliorative effect on alcohol withdrawal symptoms [5]: yes; Presence/absence of dependence [5]: absent; Suppressive effect on excessive alcohol intake [5]: none; Suppressive effect on stress-induced reinstatement [5]: none; Ameliorative effect on alcohol withdrawal symptoms ([5]; listed as clonidine): effective; Suppressive effect on excessive alcohol intake ([5]; listed as clonidine): ineffective; Suppressive effect on stress-induced reinstatement ([5]; listed as clonidine): ineffective

Question: For `O=C1CC[C@@]2(O)[C@H]3Cc4ccc(O)c5c4[C@@]2(CCN3CC2CC2)[C@H]1O5` [Naltrexone], which “Ameliorative effect” value [5] is on record?
Answer: The value was “none”.

Question: And the Presence/absence of dependence [5]?
Answer: Its Presence/absence of dependence is “absent”.

Question: What about the “Suppressive effect on excessive alcohol intake” value [5] of the same molecule?
Answer: The value was “yes”.

Question: And the “Suppressive effect on stress-induced reinstatement” value [5]?
Answer: The value was “none”.

Question: And the “Ameliorative effect” value ([5]; listed as naltrexone)?
Answer: Its value is “ineffective”.

Question: And the “Suppressive effect on excessive alcohol intake” value ([5]; listed as naltrexone)?
Answer: The value was “effective”.

Question: What about the “Suppressive effect on stress-induced reinstatement” value ([5]; listed as naltrexone) of the same molecule?
Answer: Its value is “ineffective”.

Question: With `CN1C(=O)CN=C(c2ccccc2)c2cc(Cl)ccc21` [Diazepam] as the molecule, how does the “Ameliorative effect” value [5] read?
Answer: Its value is “yes”.

Question: And the Presence/absence of dependence [5]?
Answer: The Presence/absence of dependence was “present”.

Question: And the “Suppressive effect on excessive alcohol intake” value [5]?
Answer: Its value is “none”.

Question: What about the “Suppressive effect on stress-induced reinstatement” value [5] of the same molecule?
Answer: Its value is “none”.

Question: And the Presence/absence of dependence ([5]; listed as diazepam)?
Answer: Its Presence/absence of dependence is “induce dependence”.
